In patent US20070293580A1, “Methods for Buccal, Lingual or Sublingual Dosing Regimens of Epinephrine for the Treatment of Allergic Emergencies” (priority 2006, published 2007):

Legend:
symptoms of anaphylaxis [1] = conditions: 40 mg
Method: (§1) A patient experiencing an allergic emergency initiates treatment at the onset of shortness of breath by self administering 40 mg of epinephrine free base in a buccal dosage form.
as §1

symptoms of anaphylaxis [2] = conditions: 30 mg, then 45 mg at approximately 5 minute intervals without amelioration, within about five minutes after the third dose
Method: A patient experiencing an allergic emergency initiates treatment at the onset of shortness of breath by self administering 30 mg of epinephrine free base in a lingual dosage form. After approximately 5 minutes pass without amelioration of the symptoms of anaphylaxis, the patient self administers a second lingual dosage form comprising 30 mg of epinephrine free base. After another approximately 5 minutes pass without amelioration of the symptoms of anaphylaxis, the patient self administers a third lingual dosage form comprising 45 mg of epinephrine free base.

CNC[C@H](O)c1ccc(O)c(O)c1 [epinephrine free base, epinephrine]
symptoms of anaphylaxis are relieved: patient's symptoms of anaphylaxis after the third buccal dose (symptoms of anaphylaxis [1]; then 60 mg at approximately 5 minute intervals without amelioration, within about five minutes after the third dose) | patient's symptoms of anaphylaxis after the second buccal dose (symptoms of anaphylaxis [1]; then second 40 mg after approximately 5 minutes without amelioration, within about five minutes after the second dose) | patient's symptoms of anaphylaxis after the third lingual dose (symptoms of anaphylaxis [2])
